Blank lines part the entries; values can stand above or below the compound they belong to.
System: 967376-340-R-J2-PDC multicell spheroid viability
Assay: Anticancer human tumor 967376-340-R-J2-PDC patient-derived colon adenocarcinoma cell line growth inhibition [PI3K]
Settings: for IC50: curve of first compound; for viability, T/C: stronger effect = lower value
Summary of the method: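 Combination activity was assessed by viability in multicellular tumor spheroids carrying HUVEC and MSC components. Agents were tested with PI3K inhibitors from a Cmax-based top dose (or 10 microM) downward in half-log increments.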

[1] = second compound 0.0316 µM, first compound 0.0316 µM
[2] = second compound 0.0316 µM, first compound 0.1 µM
[3] = second compound 0.0316 µM, first compound 0.316 µM
[4] = second compound 0.0316 µM, first compound 1 µM
[5] = second compound 0.0316 µM, first compound 3.16 µM
[6] = second compound 0.0316 µM, first compound 10 µM
[7] = second compound 0.1 µM, first compound 0.0316 µM
[8] = second compound 0.1 µM, first compound 0.1 µM
[9] = second compound 0.1 µM, first compound 0.316 µM
[10] = second compound 0.1 µM, first compound 1 µM
[11] = second compound 0.1 µM, first compound 3.16 µM
[12] = second compound 0.1 µM, first compound 10 µM
[13] = second compound 0.316 µM, first compound 0.0316 µM
[14] = second compound 0.316 µM, first compound 0.1 µM
[15] = second compound 0.316 µM, first compound 0.316 µM
[16] = second compound 0.316 µM, first compound 1 µM
[17] = second compound 0.316 µM, first compound 3.16 µM
[18] = second compound 0.316 µM, first compound 10 µM
[19] = second compound 1 µM, first compound 0.0316 µM
[20] = second compound 1 µM, first compound 0.1 µM
[21] = second compound 1 µM, first compound 0.316 µM
[22] = second compound 1 µM, first compound 1 µM
[23] = second compound 1 µM, first compound 3.16 µM
[24] = second compound 1 µM, first compound 10 µM
[25] = second compound 3.16 µM, first compound 0.0316 µM
[26] = second compound 3.16 µM, first compound 0.1 µM
[27] = second compound 3.16 µM, first compound 0.316 µM
[28] = second compound 3.16 µM, first compound 1 µM
[29] = second compound 3.16 µM, first compound 3.16 µM
[30] = second compound 3.16 µM, first compound 10 µM
[31] = second compound 10 µM, first compound 0.0316 µM
[32] = second compound 10 µM, first compound 0.1 µM
[33] = second compound 10 µM, first compound 0.316 µM
[34] = second compound 10 µM, first compound 1 µM
[35] = second compound 10 µM, first compound 3.16 µM
[36] = second compound 10 µM, first compound 10 µM
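Further: spheroids exposed to agents for 7 days before read-out.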
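Wherever viability, T/C is given: luminescence used as surrogate of cell viability.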

IC50 (second compound 0.0316 µM): > 10 µM | IC50 (second compound 0.1 µM): 7.44 µM | IC50 (second compound 0.316 µM): > 10 µM | IC50 (second compound 1 µM): 4.6 µM | IC50 (second compound 3.16 µM): 5.42 µM | IC50 (second compound 10 µM): 0.366 µM
SMILES: Cn1ncc(Cl)c1-c1cc(C(=O)NC(CN)Cc2cccc(F)c2)sc1Cl (stereo not drawn) + Cc1nc(NC(=O)N2CCCC2C(N)=O)sc1-c1ccnc(C(C)(C)C(F)(F)F)c1
viability, T/C [1]: 108% | viability, T/C [2]: 79% | viability, T/C [3]: 77.8% | viability, T/C [4]: 72.3% | viability, T/C [5]: 61.3% | viability, T/C [6]: 71.4% | viability, T/C [7]: 75.6% | viability, T/C [8]: 91% | viability, T/C [9]: 76.5% | viability, T/C [10]: 82.6% | viability, T/C [11]: 75.2% | viability, T/C [12]: 41.1% | viability, T/C [13]: 72.8% | viability, T/C [14]: 82% | viability, T/C [15]: 78.1% | viability, T/C [16]: 89.6% | viability, T/C [17]: 61.6% | viability, T/C [18]: 59.9% | viability, T/C [19]: 62.2% | viability, T/C [20]: 83.4% | viability, T/C [21]: 60.5% | viability, T/C [22]: 65% | viability, T/C [23]: 55.3% | viability, T/C [24]: 38.9% | viability, T/C [25]: 52.2% | viability, T/C [26]: 55.9% | viability, T/C [27]: 53.2% | viability, T/C [28]: 61.3% | viability, T/C [29]: 52% | viability, T/C [30]: 42.4% | viability, T/C [31]: 60.4% | viability, T/C [32]: 55.6% | viability, T/C [33]: 51.2% | viability, T/C [34]: 40.8% | viability, T/C [35]: 46.7% | viability, T/C [36]: 32.8%

IC50 (second compound 0.00316 µM): > 10 µM | IC50 (second compound 0.01 µM): > 10 µM | IC50 (second compound 0.0316 µM): > 10 µM | IC50 (second compound 0.1 µM): > 10 µM | IC50 (second compound 0.316 µM): > 10 µM | IC50 (second compound 1 µM): > 10 µM
SMILES: C[C@@H](NC(=O)c1ncnc(N)c1Cl)c1ncc(C(=O)Nc2cc(C(F)(F)F)c(Cl)cn2)s1 + CC(Nc1ccc2c(c1)OCCn1cc(N3C(=O)OCC3C(F)F)nc1-2)C(N)=O
viability, T/C (second compound 0.00316 µM, first compound 0.0316 µM): 105% | viability, T/C (second compound 0.00316 µM, first compound 0.1 µM): 74.9% | viability, T/C (second compound 0.00316 µM, first compound 0.316 µM): 73.3% | viability, T/C (second compound 0.00316 µM, first compound 1 µM): 91.9% | viability, T/C (second compound 0.00316 µM, first compound 3.16 µM): 80.4% | viability, T/C (second compound 0.00316 µM, first compound 10 µM): 97.9% | viability, T/C (second compound 0.01 µM, first compound 0.0316 µM): 83.9% | viability, T/C (second compound 0.01 µM, first compound 0.1 µM): 98.7% | viability, T/C (second compound 0.01 µM, first compound 0.316 µM): 101% | viability, T/C (second compound 0.01 µM, first compound 1 µM): 94.8% | viability, T/C (second compound 0.01 µM, first compound 3.16 µM): 97.1% | viability, T/C (second compound 0.01 µM, first compound 10 µM): 130% | viability, T/C [1]: 62.2% | viability, T/C [2]: 107% | viability, T/C [3]: 69% | viability, T/C [4]: 98.9% | viability, T/C [5]: 95.2% | viability, T/C [6]: 109% | viability, T/C [7]: 72.9% | viability, T/C [8]: 67.8% | viability, T/C [9]: 63.6% | viability, T/C [10]: 77.7% | viability, T/C [11]: 75.2% | viability, T/C [12]: 66% | viability, T/C [13]: 65.5% | viability, T/C [14]: 70.6% | viability, T/C [15]: 78.2% | viability, T/C [16]: 73.5% | viability, T/C [17]: 77.2% | viability, T/C [18]: 70.9% | viability, T/C [19]: 69.4% | viability, T/C [20]: 62.2% | viability, T/C [21]: 56% | viability, T/C [22]: 57.9% | viability, T/C [23]: 69.9% | viability, T/C [24]: 62%

IC50 (second compound 0.0316 µM): > 10 µM | IC50 (second compound 0.1 µM): > 10 µM | IC50 (second compound 0.316 µM): > 10 µM | IC50 (second compound 1 µM): > 10 µM | IC50 (second compound 3.16 µM): > 10 µM | IC50 (second compound 10 µM): > 10 µM
SMILES: CNC(=O)c1ccc(N2C(=S)N(c3ccc(C#N)c(C(F)(F)F)c3)C(=O)C2(C)C)cc1F + CC(Nc1ncnc2nc[nH]c12)c1cc2cccc(Cl)c2c(=O)n1-c1ccccc1
viability, T/C [1]: 140% | viability, T/C [2]: 88.7% | viability, T/C [3]: 92% | viability, T/C [4]: 101% | viability, T/C [5]: 134% | viability, T/C [6]: 88.3% | viability, T/C [7]: 109% | viability, T/C [8]: 109% | viability, T/C [9]: 94.2% | viability, T/C [10]: 104% | viability, T/C [11]: 99.3% | viability, T/C [12]: 73.1% | viability, T/C [13]: 89.6% | viability, T/C [14]: 104% | viability, T/C [15]: 82.2% | viability, T/C [16]: 92% | viability, T/C [17]: 106% | viability, T/C [18]: 105% | viability, T/C [19]: 81.4% | viability, T/C [20]: 80.3% | viability, T/C [21]: 72.3% | viability, T/C [22]: 86.1% | viability, T/C [23]: 113% | viability, T/C [24]: 88.5% | viability, T/C [25]: 78.5% | viability, T/C [26]: 89% | viability, T/C [27]: 82% | viability, T/C [28]: 80.1% | viability, T/C [29]: 102% | viability, T/C [30]: 87.5% | viability, T/C [31]: 63.9% | viability, T/C [32]: 83.7% | viability, T/C [33]: 70% | viability, T/C [34]: 70.6% | viability, T/C [35]: 92.3% | viability, T/C [36]: 77.4%

IC50 (second compound 0.0316 µM): > 10 µM | IC50 (second compound 0.1 µM): > 10 µM | IC50 (second compound 0.316 µM): > 10 µM | IC50 (second compound 1 µM): > 10 µM | IC50 (second compound 3.16 µM): > 10 µM | IC50 (second compound 10 µM): > 10 µM
SMILES: CC1(C)CCC(CN2CCN(c3ccc(C(=O)NS(=O)(=O)c4ccc(NCC5CCOCC5)c([N+](=O)[O-])c4)c(Oc4cnc5[nH]ccc5c4)c3)CC2)=C(c2ccc(Cl)cc2)C1 + CC(Nc1ncnc2nc[nH]c12)c1cc2cccc(Cl)c2c(=O)n1-c1ccccc1
viability, T/C [1]: 92% | viability, T/C [2]: 83.4% | viability, T/C [3]: 98.1% | viability, T/C [4]: 83.8% | viability, T/C [5]: 75.6% | viability, T/C [6]: 92.2% | viability, T/C [7]: 95.1% | viability, T/C [8]: 79.7% | viability, T/C [9]: 82.7% | viability, T/C [10]: 87.3% | viability, T/C [11]: 86.3% | viability, T/C [12]: 75.2% | viability, T/C [13]: 102% | viability, T/C [14]: 101% | viability, T/C [15]: 83% | viability, T/C [16]: 83.1% | viability, T/C [17]: 86.5% | viability, T/C [18]: 71.6% | viability, T/C [19]: 88.5% | viability, T/C [20]: 115% | viability, T/C [21]: 116% | viability, T/C [22]: 87.8% | viability, T/C [23]: 79% | viability, T/C [24]: 74.1% | viability, T/C [25]: 90.4% | viability, T/C [26]: 86% | viability, T/C [27]: 67.6% | viability, T/C [28]: 82.9% | viability, T/C [29]: 79.1% | viability, T/C [30]: 101% | viability, T/C [31]: 55.1% | viability, T/C [32]: 73.3% | viability, T/C [33]: 83.4% | viability, T/C [34]: 74.7% | viability, T/C [35]: 68% | viability, T/C [36]: 76.3%
